Source: patent publication US9586946B2, “Selective immunoproteasome inhibitors with non-peptide scaffolds” (University of Kentucky Research Foundation, priority 2015, dated 2017)
Each block holds one compound with its values, some of them ahead of it. Where a SMILES comes first, the peptide text is derived from it.

Columns and labels:
[1] = target: T1, 20S human constitutive proteasome (CT-L activity) (Homo sapiens, UniProt P28074); assay: Inhibition of CT-L activity of the constitutive proteasome (Suc-LLVY-AMC fluorogenic substrate); assay type: biochemical; conditions: inhibitor at 5 μM; remaining enzyme activity; read-out: % CP activity (remaining activity of the enzyme)
T1 construct: purchased Boston Biochem
Procedure: (§1) The computationally selected 13 compounds were tested for their inhibitory activity against the CT-L activity of the immunoproteasome. The identified active compounds were also tested for their inhibitory activity against the CT-L activity of the constitutive proteasome. For the initial activity screening, the selected compounds were dissolved in DMSO and used at a concentration of 5 μM. Epoxomicin ([…]), which reached the 100% inhibition, was used as a positive control. 20S human immunoproteasome and constitutive proteasome (Boston Biochem) were 2-fold diluted in an assay buffer (20 mM Tris/Cl, pH 8.0, 0.5 mM EDTA, 0.035% SDS).^17
(§2) Specifically, selected compounds were preincubated with 50 ng/well of the immunoproteasome or constitutive proteasome in a 96-well plate at room temperature for 13 min. 100 μM of Suc-LLVY-AMC, a fluorogenic peptide substrate for the CT-L activity, was then added to the wells. Fluorogenic signals of the free AMC (Ex: 360, Em: 460)^18 were recorded for 90 min. The initial reaction velocities (RFU/min) of each compound were calculated as a percentage of the positive control. All enzyme activity assays were carried out in triplicate.

[2] = target: T2, 20S human immunoproteasome (CT-L activity) (Homo sapiens, UniProt P28062); assay: Inhibition of CT-L activity of the immunoproteasome (Suc-LLVY-AMC fluorogenic substrate); assay type: biochemical; conditions: for remaining activity at 5 µM: inhibitor at 5 μM, remaining enzyme activity, read-out: % IP activity (remaining activity of the enzyme); for IC50: unit inferred, read-out: IC50 values against the immunoproteasome; for inhibition of the CT-L activity of the immunoproteasome: 5 µM
T2 construct: purchased Boston Biochem
Procedure: as §1, §2

remaining activity at 5 µM [1]: 80%
remaining activity at 5 µM [2]: 74%
SMILES: O=C(CC[C@H](NC(=O)c1cc(-c2ccoc2)nc2ccccc12)C(=O)NCc1cc(F)ccc1F)OC1CCCCC1 [Compound 15]

remaining activity at 5 µM [1]: 98%
remaining activity at 5 µM [2]: 79%
SMILES: CCCCc1ccc2nc(-c3ccc(OC)cc3)cc(C(=O)NC[C@@H](C)C(=O)N3CCC[C@@H]3CO)c2c1 [Compound 4]

remaining activity at 5 µM [1]: 50%
remaining activity at 5 µM [2]: 42%
SMILES: Cc1ccc(OS(=O)(=O)c2cccc(C(F)(F)F)c2)c(-c2cc(-c3ccccc3)n(CCN[C@@H]3CCNC3)n2)c1 [Compound 16]

remaining activity at 5 µM [1]: 80%
remaining activity at 5 µM [2]: 80%
SMILES: COc1ccc(-c2cc(C(=O)N[C@H](CCC(=O)OC3CCCCC3)C(=O)NCCc3ccncc3)c3ccccc3n2)cc1C [Compound 11]

remaining activity at 5 µM [1]: 80%
inhibition of the CT-L activity of the immunoproteasome ([2]; compound at 5 μM, % inhibition): 85%
remaining activity at 5 µM [2]: 15%
IC50 [2]: 1.7 µM
SMILES: Cc1ccc(-c2cc(C(=O)NC[C@@H]3CCCO3)c3cc(CNS(=O)(=O)c4cccc(Cl)c4)ccc3n2)o1 [Compound 1]

remaining activity at 5 µM [1]: 85%
inhibition of the CT-L activity of the immunoproteasome ([2]; compound at 5 μM, % inhibition): 62%
remaining activity at 5 µM [2]: 38%
IC50 [2]: 4.9 µM
SMILES: Cc1ccc(CSC[C@@H](NC(=O)c2cc(-c3ccccc3)nc3ccccc23)C(=O)NCCCN2CCCC2=O)cc1 [Compound 3]

remaining activity at 5 µM [1]: 67%
remaining activity at 5 µM [2]: 69%
SMILES: Cc1cccc(Nc2ccccc2C(=O)N[C@H](CC[S@+](C)[O-])C(=O)N[C@H](C)c2ccc(F)cc2)c1C [Compound 19]

remaining activity at 5 µM [1]: 76%
remaining activity at 5 µM [2]: 70%
SMILES: CCN(CC)CCNC(=O)[C@H](Cc1ccc(OCc2ccccc2)cc1)NC(=O)CCC(=O)c1ccccc1 [Compound 14]

remaining activity at 5 µM [1]: 76%
remaining activity at 5 µM [2]: 65%
SMILES: NC(=O)CC[C@H](NC(=O)[C@H](Cc1cnc[nH]1)NC(=O)OCC1c2ccccc2-c2ccccc21)C(=O)N1CCC[C@H]1C(=O)O [Compound 7] (HELM PEPTIDE1{[O=C(OCC1c2ccccc2-c2ccccc21)[*:2]].H.Q.P}$$$$V2.0)

remaining activity at 5 µM [1]: 88%
remaining activity at 5 µM [2]: 91%
SMILES: COc1ccccc1C(=O)N/C(=C/c1ccc(Br)cc1)C(=O)Nc1ccc(S(=O)(=O)/N=c2\[nH]ccs2)cc1 [Compound 13]

The remaining lines, values behind:

SMILES: CC[C@H](C)[C@H](NC(=O)[C@H]([C@@H](C)CC)N(C)C(C)=O)C(=O)N[C@H](C(=O)N[C@@H](CC(C)C)C(=O)[C@@]1(C)CO1)[C@@H](C)O [Epoxomicin, reference compound]
inhibition by positive control ([2]; Epoxomicin at 1 tM (so in the source), positive control): 100%

SMILES: CCOc1ccc2[nH]c3c(c2c1)CC(C(=O)NCC1CCCCC1)N[C@@H]3c1ccc(O)c([N+](=O)[O-])c1 (stereo partly drawn) [Compound 8]
remaining activity at 5 µM [1]: 106%
remaining activity at 5 µM [2]: 90%

SMILES: CC[C@H](C(=O)C(=O)NCCCN1CCOCC1)N1CC(C)C[C@@H](NC(=O)OCc2ccccc2)C1=O (stereo partly drawn) [Compound 6]
remaining activity at 5 µM [1]: 94%
remaining activity at 5 µM [2]: 86%

SMILES: CCC[C@H]1C[C@H](C(=O)N[C@@H]([C@@H]2O[C@H](SC)[C@@H](O)[C@@H](O)[C@@H]2O)[C@@H](C)O)[N@@H+](C)C1 [Compound 2]
remaining activity at 5 µM [1]: 98%
inhibition at 5 µM ([2]; compound at 5 μM, % inhibition): 36 to 85%
remaining activity at 5 µM [2]: 64%
IC50 [2]: 22 µM

SMILES: CCN1CCN(CCCN2C(=O)C3[C@H](C(=O)Nc4cc(C)cc(C)c4)[C@@H]4C=C[C@]3(O4)[C@H]2C(=O)N[C@@H]2CCC[C@H](C)[C@H]2C)CC1 (stereo partly drawn) [Compound 10]
remaining activity at 5 µM [1]: 85%
remaining activity at 5 µM [2]: 82%

SMILES: O=C1CN(/N=C/c2ccc(-c3ccc(Cl)cc3)o2)C(=O)N1CCCCN1CCN(C[C@@H](O)c2ccccc2)CC1 [Compound 18]
remaining activity at 5 µM [1]: 84%
remaining activity at 5 µM [2]: 75%

SMILES: N=C(N)NCCC[C@@H]1NC(=O)[C@H](Cc2ccccc2)NC(=O)[C@@H](Cc2ccc(O)cc2)NC(=O)CNC(=O)[C@@H](Cc2c[nH]c3ccccc23)NC1=O [Compound 5] (HELM PEPTIDE1{F.R.[dW].G.[dY]}$PEPTIDE1,PEPTIDE1,1:R1-5:R2$$$V2.0)
remaining activity at 5 µM [1]: 82%
remaining activity at 5 µM [2]: 81%

SMILES: C=C(CCCc1ccccc1)N[C@@H](Cc1ccc(Cl)cc1)C(=O)N[C@H](Cc1ccccc1)C(=O)N[C@H](CCCNC(=N)N)C(=O)N[C@@H](Cc1c[nH]c2ccccc12)C(N)=O [Compound 17]
remaining activity at 5 µM [1]: 41%
remaining activity at 5 µM [2]: 42%

SMILES: CC[C@@H](O)CNC(=O)C[C@@H]1CCN(Cc2ccc(C)s2)C[C@@H]1[C@H]1CC(c2ccccc2OC)=NO1 [Compound 12]
remaining activity at 5 µM [1]: 72%
remaining activity at 5 µM [2]: 69%

SMILES: O=C(C[C@@H]1CCN(CC2CC2)C[C@@H]1[C@H]1CC(c2ccccc2Cl)=NO1)NCCc1ccccn1 [Compound 9]
remaining activity at 5 µM [1]: 86%
remaining activity at 5 µM [2]: 87%
